These results are taken from patent US12209072B2, “Cyclopentyl acids as LPA antagonists” (BRISTOL-MYERS SQUIBB COMPANY, priority 2018, dated 2025).

The target in one assay is T1, human LPA1 (Homo sapiens, UniProt Q92633).
T1 construct: expressed in transfected cells; host or cells: Chinese hamster ovary (CHO) cells
T1 sequence (Q92633 whole entry): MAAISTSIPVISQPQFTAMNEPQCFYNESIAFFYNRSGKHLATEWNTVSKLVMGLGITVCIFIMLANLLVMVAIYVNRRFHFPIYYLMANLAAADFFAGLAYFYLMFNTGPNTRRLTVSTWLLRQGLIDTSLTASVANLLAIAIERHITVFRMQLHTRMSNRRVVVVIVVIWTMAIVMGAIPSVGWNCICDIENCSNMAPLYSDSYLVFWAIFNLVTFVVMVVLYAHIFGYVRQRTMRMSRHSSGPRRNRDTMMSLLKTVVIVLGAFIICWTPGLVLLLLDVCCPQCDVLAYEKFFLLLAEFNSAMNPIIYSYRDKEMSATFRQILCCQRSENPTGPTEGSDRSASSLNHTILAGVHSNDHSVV
The assay is described as follows: LPA1 functional antagonist assay (LPA-induced calcium flux). It counts as cell-based. Particulars: CHO cells overexpressing human LPA1; inhibition of calcium flux induced by 10 nM LPA; read-out: hLPA1 IC50. The gist of the method:
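CHO cells overexpressing human LPA1, loaded with calcium dye, given compound (0.08 nM–5 μM final, 0.5% DMSO) for 20 min at room temperature in HBSS/HEPES with 0.1% fatty-acid-free BSA, then stimulated with 10 nM LPA. IC50 defined as 50% inhibition of LPA-induced calcium flux, from 4-parameter logistic fit.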
Consider `Cc1nc(-c2nnn(C)c2COC(=O)N(C)CC2CCC2)cnc1O[C@H]1CC[C@H](CC(=O)O)C1` (single isomer, unassigned) [Example 27, 2-(trans-3-((5-(5-((((cyclobutylmethyl)(methyl)carbamoyl)oxy)methyl)-1-methyl-1H-1,2,3-triazol-4-yl)-3-methylpyrazin-2-yl)oxy)cyclopentyl)acetic Acid], for which the half-inhibitory concentration (IC50) worked out at 260 nM.

For the compound `CCCCN(C)C(=O)OCc1c(-c2ccc(O[C@H]3CC[C@H](CC(=O)O)C3)c(C)n2)nnn1C` (single isomer, unassigned) [Example 4, (±)-Trans-2-(3-((6-(5-(((butyl(methyl)carbamoyl)oxy)methyl)-1-methyl-1H-1,2,3-triazol-4-yl)-2-methylpyridin-3-yl)oxy)cyclopentyl)acetic Acid], the half-inhibitory concentration (IC50) is 15 nM.

For the compound `Cc1nc(-c2nnn(C)c2COC(=O)N(C)CC2CCC2)ccc1O[C@H]1CC[C@H](C(=O)O)C1` (racemic) [Example 75, (±)-trans-3-({6-[5-({[(cyclobutyl-methyl)(methyl)carbamoyl]oxy}methyl)-1-methyl-1H-1,2,3-triazol-4-yl]-2-methylpyridin-3-yl}oxy)cyclo-pentane-1-carboxylic acid], the IC50 stood at 42.5 nM.

For the compound `Cc1nc(-c2nnn(C)c2COC(=O)N(C)CC2CCC2)c(F)cc1O[C@H]1CC[C@H](CC(=O)O)C1` (racemic) [Example 70, (±)-trans-2-[3-({6-[5-({[(cyclobutyl-methyl)(methyl)carbamoyl]oxy}methyl)-1-methyl-1H-1,2,3-triazol-4-yl]-5-fluoro-2-methyl-pyridin-3-yl}oxy)cyclopentyl]acetic acid], the IC50 came to 220 nM.

As for `Cc1noc(-c2ccc(O[C@@H]3CC[C@@H](C(=O)O)C3)cc2)c1COC(=O)N(C)C1CCCC1` (racemic) [Example 3, (±)-Trans-3-(4-(4-(((cyclopentyl(methyl)carbamoyl)oxy)methyl)-3-methylisoxazol-5-yl)phenoxy)cyclopentane-1-carboxylic Acid], the IC50 was 171 nM.

Consider `Cc1nc(-c2nnn(C)c2CNC(=O)OCc2ccccc2)ccc1O[C@@H]1CC[C@@H](C(=O)O)C1` (single isomer, unassigned) [Example 21, Trans-3-((6-(5-((((benzyloxy)carbonyl)amino)methyl)-1-methyl-1H-1,2,3-triazol-4-yl)-2-methyl-pyridin-3-yl)oxy)cyclopentane carboxylic acid], for which the IC50 came out at 56 nM.

For the compound `Cc1nc(-c2nnn(C)c2CNC(=O)OCc2ccccc2)ccc1O[C@@H]1CC[C@@H](C(=O)O)C1` (racemic) [Example 20, (±)-trans-3-((6-(5-((((benzyloxy)carbonyl)amino)methyl)-1-methyl-1H-1,2,3-triazol-4-yl)-2-methyl-pyridin-3-yl)oxy)cyclopentane carboxylic acid], the IC50 was found to be 39.7 nM.

Turning to `Cc1nc(-c2nnn(C)c2CNc2noc(CCC3CCC3)n2)ccc1O[C@H]1CC[C@H](CC(=O)O)C1` (racemic) [Example 80, (±)-2-(3-((6-(5-(((5-(2-cyclobutylethyl)-1,2,4-oxadiazol-3-yl)amino)methyl)-1-methyl-1H-1,2,3-triazol-4-yl)-2-methylpyridin-3-yl)oxy)cyclopentyl)acetic Acid], the IC50 amounted to 108 nM.

`CN(CC1CCC1)C(=O)OCc1c(-c2ccc(O[C@@H]3CC[C@@H](C(=O)O)C3)cn2)nnn1C` (racemic) [Example 25, (±)-trans-3-((6-(5-((((cyclobutyl-methyl)(methyl)carbamoyl)oxy)methyl)-1-methyl-1H-1,2,3-triazol-4-yl)pyridin-3-yl)oxy)cyclopentane carboxylic acid]: the IC50 came out at 354 nM.

Regarding `Cc1nc(-c2nnn(C)c2COC(=O)N2CCC3(CC3)C2)ccc1O[C@H]1CC[C@H](CC(=O)O)C1` (racemic) [Example 67, (±)-trans-2-[3-({6-[5-({5-azaspiro[2.4]heptane-5-carbonyloxy}methyl)-1-methyl-1H-1,2,3-triazol-4-yl]-2-methylpyridin-3-yl}oxy)cyclopentyl]acetic acid], the IC50 stood at 770 nM.

With `CCCCN(C)C(=O)OCc1c(-c2ccc(O[C@@H]3CC[C@@H](CC(=O)O)C3)c(CC)n2)nnn1C` (racemic) [Example 86, (±)-2-((trans)-3-((6-(5-(((butyl(methyl)carbamoyl)oxy)methyl)-1-methyl-1H-1,2,3-triazol-4-yl)-2-ethylpyridin-3-yl)oxy)cyclopentyl)acetic acid], the half-maximal inhibitory concentration (IC50) was determined as 48 nM.

As to `Cc1noc(-c2ccc(O[C@H]3CC[C@@H](C(=O)O)C3)cc2)c1COC(=O)N(C)CCC(C)C` (racemic) [Example 73, (±)-cis-3-{4-[3-methyl-4-({[methyl(3-methylbutyl)carbamoyl]oxy}methyl)-1,2-oxazol-5-yl]phenoxy}cyclo-pentane-1-carboxylic acid], the IC50 is 1180 nM.

Regarding `Cc1nc(-c2onc(C)c2COC(=O)N(C)C2CCCC2)ccc1O[C@H]1CC[C@H](C(C)C(=O)O)C1` (mixture of isomers) [Example 51, (±)-trans-2-[3-({6-[4-({[cyclopentyl(methyl)carbamoyl]oxy}methyl)-3-methyl-1,2-oxazol-5-yl]-2-methyl-pyridin-3-yl}oxy)cyclopentyl]propanoic acid], the IC50 turned out to be 24 nM.

As to `CN(C(=O)OCc1c(-c2ccc(O[C@H]3CC[C@@H](C(=O)O)C3)cc2)nnn1C)C1CCCC1` (relative stereo) [Example 11, Cis-3-(4-(5-(((cyclopentyl(methyl)carbamoyl)oxy)methyl)-1-methyl-1H-1,2,3-triazol-4-yl)phenoxy)cyclo-pentane-1-carboxylic acid], the IC50 stood at 386 nM.

For `Cc1nc(-c2onc(C)c2COC(=O)N(C)C2CCCC2)ccc1O[C@H]1CC[C@H](C(C)C(=O)O)C1` (mixture of isomers) [Example 50, (±)-trans-2-[3-({6-[4-({[cyclopentyl(methyl)carbamoyl]oxy}methyl)-3-methyl-1,2-oxazol-5-yl]-2-methyl-pyridin-3-yl}oxy)cyclopentyl]propanoic acid], the IC50 was 20 nM.

Turning to `Cc1nc(-c2nnn(C)c2COC(=O)N(C)C2(C)CC2)ccc1O[C@H]1CC[C@H](CC(=O)O)C1` (racemic) [Example 57, (±)-trans-2-[3-({2-methyl-6-[1-methyl-5-({[methyl(1-methylcyclo-propyl)carbamoyl]oxy}methyl)-1H-1,2,3-triazol-4-yl]pyridin-3-yl}oxy)cyclopentyl]acetic acid], the concentration for half-maximal inhibition (IC50) was 295 nM.

Consider `Cc1nc(-c2nnn(C)c2COC(=O)N(C)CC2CCC2)ccc1O[C@H]1CC[C@@H](C(=O)O)C1` (racemic) [Example 74, (±)-cis-3-({6-[5-({[cyclobutylmethyl)(methyl)carbamoyl]oxy}methyl)-1-methyl-1H-1,2,3-triazol-4-yl]-2-methylpyridin-3-yl}oxy)cyclopentane-1-carboxylic acid], for which the IC50 was found to be 101 nM.

Turning to `Cc1nc(-c2nnn(C)c2COC(=O)N(C)CC2CCC2)cnc1O[C@@H]1CC[C@@H](C(=O)O)C1` (racemic) [Example 13, (±)-Trans-3-((5-(5-((((cyclobutylmethyl)(methyl)carbamoyl)oxy)methyl)-1-methyl-1H-1,2,3-triazol-4-yl)-3-methylpyrazin-2-yl)oxy)cyclopentanecarboxylic Acid], the IC50 is 618 nM.

As to `Cc1nc(-c2nnn(C)c2CNC(=O)OCc2ccccc2)cnc1O[C@@H]1CC[C@@H](C(=O)O)C1` (racemic) [Example 15, (±)-Trans-3-((5-(5-((((benzyloxy)carbonyl)amino)methyl)-1-methyl-1H-1,2,3-triazol-4-yl)-3-methylpyrazin-2-yl)oxy)cyclopentanecarboxylic Acid], the IC50 came out at 714 nM.

Turning to `Cc1nc(-c2onc(C)c2COC(=O)N(C)C2CCCC2)ccc1O[C@H]1CC[C@@H](CC(=O)O)C1` (racemic) [Example 47, (±)-cis-2-[3-({6-[4-({[cyclopentyl(methyl)carbamoyl]oxy}methyl)-3-methyl-1,2-oxazol-5-yl]-2-methyl-pyridin-3-yl}oxy)cyclopentyl]acetic acid], the IC50 turned out to be 25 nM.

For the next assay, the system named is human foetal lung fibroblasts.
Assay: not given
Particulars: cited from earlier work.
On to `Cc1noc(-c2ccc(CSCCC(=O)O)cc2)c1NC(=O)OC(C)c1ccccc1Cl` (centres unmarked) [Ki16425], for which the “chemotaxis of human foetal lung fibroblasts induced by BAL obtained from IPF patients” value is listed as “blocked”.

For the next assay, the system named is UUO mice.
Assay: not given
The following applies: compared with LPA1 (-/-) mice; cited from earlier work.
Take `Cc1noc(-c2ccc(CSCCC(=O)O)cc2)c1NC(=O)OC(C)c1ccccc1Cl` (centres unmarked) [Ki16425]: the “development of renal fibrosis in UUO mice” value is reported as “closely resembled the profile of LPA1 (−/−) mice”.

The next assay relates to mouse epithelial renal cell line, MCT.
Assay: not given
Particulars: co-treatment with LPA, MCT cells; cited from earlier work.
In the case of `Cc1noc(-c2ccc(CSCCC(=O)O)cc2)c1NC(=O)OC(C)c1ccccc1Cl` (centres unmarked) [Ki16425], the “LPA-induced increase in expression of the profibrotic cytokine CTGF” value was “almost completely suppressed”.

For the next assay, the system named is pancreatic cancer cell lines.
Assay: not given
Particulars: cited from earlier work.
For `Cc1noc(-c2ccc(CSCCC(=O)O)cc2)c1NC(=O)OC(C)c1ccccc1Cl` (centres unmarked) [Ki16425], the “in vitro migration in response to LPA and peritoneal fluid (ascites) from pancreatic cancer patients” value is “effectively blocked”.

The test system of another assay is highly peritoneal metastatic pancreatic cancer cell line.
Assay: not given
The following applies: cited from earlier work.
Regarding `Cc1noc(-c2ccc(CSCCC(=O)O)cc2)c1NC(=O)OC(C)c1ccccc1Cl` (centres unmarked) [Ki16425], the “LPA-induced and ascites-induced invasion activity” value is reported as “blocked”.

The next assay concerns nerve-injured mice.
Assay: not given
Particulars: pretreatment; cited from earlier work.
For the compound `C[C@@H](N)[C@H]1CC[C@H](C(=O)Nc2ccncc2)CC1` [Example Y-27632], the allodynia and hyperalgesia entry is recorded as “completely abolished”.
